Reference: PubChem BioAssay (NCI)
Where “and” joins values, the source holds several entries; their conditions need not be identical. Equal entries are not always repeated.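 These data come from cells grown in 96-well plates and exposed to compound for 48 hours at five concentrations. Here, GI50 denotes the concentration required for 50% inhibition of growth. TGI is the concentration that stops growth completely.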

Assays:
Assay in all cases: DTP human tumour cell line panel, 48 h
[1] = test system: CAKI-1 renal
[2] = test system: SF-539 CNS
[3] = test system: SF-295 CNS
[4] = test system: OVCAR-8 ovarian
[5] = test system: UO-31 renal
[6] = test system: 786-0 renal
[7] = test system: OVCAR-4 ovarian
[8] = test system: LOX IMVI melanoma
[9] = test system: SK-MEL-28 melanoma
[10] = test system: MALME-3M melanoma

O=C1NC(=O)N(S(=O)(=O)c2cc(C(=O)Nc3ccc(Cl)cc3)c(Cl)cc2S)S(=O)(=O)N1
GI50 [1]: 19 µM | TGI [1]: 35.4 µM | GI50 [2]: 19.7 µM | TGI [2]: 39.3 µM | GI50 [3]: 23.4 µM | TGI [3]: 43.1 µM | GI50 [4]: 24.8 µM | TGI [4]: 64.4 µM | GI50 [5]: 19.6 µM | TGI [5]: 46.5 µM | GI50 [6]: 17.9 µM | TGI [6]: 33.7 µM | GI50 [7]: 24.2 µM | TGI [7]: > 100 µM | GI50 [8]: 17 µM | TGI [8]: 34.3 µM | GI50 [9]: 14.6 µM | TGI [9]: > 100 µM

Oc1c(Br)cc(Cl)cc1C(c1cc(Cl)cc(Br)c1O)C(Cl)(Cl)Cl
GI50 [1]: 2.09 µM | TGI [1]: 8.73 µM | GI50 [2]: 3.15 µM | TGI [2]: 10.7 µM | GI50 [3]: 1.59 µM | TGI [3]: 5.29 µM | GI50 [4]: 2.86 µM | TGI [4]: 13 µM | GI50 [5]: 2.81 µM | TGI [5]: 9.61 µM | GI50 [6]: 2.96 µM | TGI [6]: 10.3 µM | GI50 [7]: 2.86 µM | TGI [7]: 13.1 µM | GI50 [10]: 2.73 µM | TGI [10]: 7.78 µM | GI50 [8]: 2.97 µM | TGI [8]: 11.4 µM | GI50 [9]: 3.7 µM | TGI [9]: 14.9 µM

CC1=C(C(=O)Nc2ccc3[nH]ncc3c2)C(c2ccc(F)cc2)N=C(c2ccc(C(F)(F)F)nc2)N1 (centres undefined)
GI50 [1]: 11.9 µM | TGI [1]: > 25 µM | GI50 [2]: 7.61 µM | TGI [2]: > 25 µM | GI50 [3]: 9.81 µM | TGI [3]: > 25 µM | GI50 [4]: 20.2 µM | TGI [4]: > 25 µM | GI50 [5]: 3.35 µM | TGI [5]: 24.4 µM | GI50 [6]: 10.8 µM | TGI [6]: > 25 µM | GI50 [7]: 12.4 µM | TGI [7]: > 25 µM | GI50 [10]: > 16.5 µM | TGI [10]: > 25 µM | GI50 [8]: 8.88 µM | TGI [8]: > 25 µM | GI50 [9]: > 19.9 µM | TGI [9]: > 25 µM

O=C1Nc2ccc(Cl)cc2/C1=N/c1nc(-c2ccc(Cl)cc2)cs1
GI50 [6]: 1.46 µM | TGI [6]: 3.7 µM | GI50 [7]: 1.39 µM | TGI [7]: > 100 µM

CC(C)(C)c1ccc(OCCOCCOc2ccc(C(C)(C)C)cc2S(N)(=O)=O)c(S(N)(=O)=O)c1
TGI [1]: > 100 µM | TGI [2]: > 100 µM | TGI [3]: > 100 µM | TGI [4]: > 100 µM | TGI [5]: > 100 µM | TGI [6]: > 100 µM | TGI [7]: > 100 µM | TGI [10]: > 100 µM | TGI [8]: > 100 µM | TGI [9]: > 100 µM

N=C(N)SCc1ccc(Cl)c2ccccc12 (tested in a mixture with another compound)
TGI [1]: 19.2 µM and 24.4 µM | TGI [2]: 23.1 µM and 20.4 µM | TGI [3]: 24.9 µM and 23.7 µM | TGI [4]: 50.1 µM and > 77.8 µM | TGI [5]: 24.3 µM and 26.3 µM | TGI [6]: 23.9 µM and 27.2 µM | TGI [7]: 15.9 µM and 24.9 µM | TGI [10]: 22.1 µM and 23.4 µM | TGI [8]: 33.1 µM and 36.6 µM | TGI [9]: 28.1 µM and 25.6 µM

COc1ccc([C@@H]2[C@@H](Oc3ccccc3)C(=O)N2c2cc(OC)c(OC)c(OC)c2)cc1F
GI50 [2]: 0.0735 µM | TGI [2]: 0.709 µM | GI50 [3]: 0.0785 µM | TGI [3]: > 100 µM | GI50 [4]: 0.189 µM | TGI [4]: > 100 µM | GI50 [5]: 0.562 µM | TGI [5]: > 100 µM | GI50 [6]: 0.198 µM | TGI [6]: > 100 µM | GI50 [7]: 2.57 µM | TGI [7]: > 100 µM | GI50 [10]: > 100 µM | TGI [10]: > 100 µM | GI50 [8]: 0.091 µM | TGI [8]: > 100 µM | GI50 [9]: 0.26 µM | TGI [9]: > 100 µM

CC(=O)O[C@H]1C[C@@H]2[C@@]3(C)CC[C@H]4C[C@@]4(C)[C@@H]3CC[C@@]2(C)C2=CCC3=C(COC3=O)[C@]21C
GI50 [2]: 15.7 µM | TGI [2]: 32.5 µM | GI50 [3]: 19.6 µM | TGI [3]: 40.9 µM | GI50 [4]: 19.9 µM | TGI [4]: 65 µM | GI50 [5]: 32.1 µM | TGI [5]: > 100 µM | GI50 [6]: 18.6 µM | TGI [6]: 37.7 µM | GI50 [7]: 25 µM | TGI [7]: 60.2 µM | GI50 [10]: 11 µM | TGI [10]: 26.4 µM | GI50 [8]: 17.6 µM | TGI [8]: 36.5 µM | GI50 [9]: 21.6 µM | TGI [9]: 44 µM

CCCCC(C(=O)C(=O)Nc1ccccc1CC)C(=O)C(C)C (centres undefined)
TGI [1]: > 100 µM | TGI [2]: > 100 µM | TGI [3]: > 100 µM | TGI [4]: > 100 µM | TGI [5]: > 100 µM | TGI [6]: > 100 µM | TGI [7]: > 100 µM | TGI [10]: > 100 µM | TGI [8]: > 100 µM

ON1CCc2c([nH]c3ccccc23)C1c1ccc(Cl)cc1 (centres undefined)
TGI [2]: > 100 µM | TGI [3]: 91 µM | TGI [4]: > 100 µM | TGI [5]: 91.7 µM | TGI [6]: > 100 µM | TGI [10]: 77.6 µM | TGI [8]: 37.4 µM | TGI [9]: > 100 µM

O=C(CCN1CCOCC1)Nc1ccc(Cn2nnc3c2C(=O)c2nnn(Cc4ccc(NC(=O)CCN5CCOCC5)cc4)c2C3=O)cc1
GI50 [1]: > 100 µM | TGI [1]: > 100 µM | GI50 [2]: 0.913 µM | TGI [2]: 5.11 µM | GI50 [3]: > 25.7 µM | TGI [3]: > 100 µM | GI50 [4]: > 100 µM | TGI [4]: > 100 µM | GI50 [5]: > 100 µM | TGI [5]: > 100 µM | GI50 [6]: > 100 µM | TGI [6]: > 100 µM | GI50 [7]: 1.36 µM | TGI [7]: 3.44 µM | GI50 [10]: 0.247 µM | TGI [10]: 0.747 µM | GI50 [8]: 0.678 µM | TGI [8]: 3.37 µM

O=[N+]([O-])c1ccc(/C=C/c2ccc(/C=C/c3ccc([N+](=O)[O-])cc3[N+](=O)[O-])cc2)c([N+](=O)[O-])c1
TGI [1]: > 100 µM | TGI [2]: > 100 µM | TGI [3]: > 100 µM | TGI [4]: > 100 µM | TGI [5]: > 100 µM | TGI [6]: > 100 µM | TGI [7]: > 100 µM | TGI [10]: > 100 µM | TGI [9]: > 100 µM

O=C(O)c1cn(C2CC2)c2cc(N3CCN(C(=O)N(c4ccccc4)c4nc(-c5ccccc5)cs4)CC3)c(F)cc2c1=O
GI50 [3]: 0.305 µM | TGI [3]: 3.04 µM | GI50 [4]: 0.378 µM | TGI [4]: > 100 µM | GI50 [6]: 0.417 µM | TGI [6]: > 100 µM | GI50 [7]: 0.526 µM | TGI [7]: > 100 µM | GI50 [9]: 0.687 µM | TGI [9]: > 100 µM

C#CCCCCCC(=O)N[C@H]1C=C[C@@H]2/C=C(C)/C=C/[C@@H](C)[C@H]([C@H](C)[C@H](O)[C@@H](C)NC(C)=O)OC(=O)/C=C/C=C(C)\C=C\[C@]2(C)C1
GI50 [2]: < 0.004 µM | TGI [2]: 32.3 µM | GI50 [3]: < 0.004 µM | TGI [3]: 0.0182 µM | GI50 [4]: < 0.004 µM | TGI [4]: > 40 µM | GI50 [5]: < 0.004 µM | TGI [5]: 8.95 µM | GI50 [6]: < 0.004 µM | TGI [6]: > 40 µM | GI50 [7]: 3.06 µM | TGI [7]: > 40 µM | GI50 [10]: 0.567 µM | TGI [10]: 17.9 µM | GI50 [8]: < 0.004 µM | TGI [8]: < 0.004 µM | GI50 [9]: 0.00795 µM | TGI [9]: 12.3 µM

Cc1ccccc1NC(=O)C1C(=O)N(c2ccccc2C)C(=O)/C1=N\NC(N)=O (centres undefined)
TGI [1]: > 100 µM | TGI [2]: > 100 µM | TGI [3]: > 100 µM | TGI [4]: > 100 µM | TGI [5]: > 100 µM | TGI [6]: > 100 µM | TGI [7]: > 100 µM | TGI [10]: > 100 µM | TGI [9]: > 100 µM
